This note sets out measurements from patent US7900639B2, “Reconstituted tobaccos containing additive materials” (R. J. Reynolds Tobacco Company, priority 2003, dated 2011).

SMILES strings stand for the structures.

Data set [1] relates to bacteria. The data set is described as follows: Extracts tested for bacterial growth. Conditions: test extract versus control extract without additive.
For data set [2] the following is noted: room temperature.
Experimental: The tobacco blend is extracted batch wise at about 130° F. using about 10 to about 15 parts tap water for each part tobacco material. Aqueous tobacco extract is separated from the water insoluble pulp using a centrifuge. The aqueous extract so provided has a soluble solids content of about 5%. The resulting extract is concentrated to a soluble solids content of about 22% to about 28% using a wiped film evaporator. The prepared extract is divided into two portions. To one portion, d-, l-alpha tocopherol is contacted with the resulting mixture (the test extract). […] In the other portion, no d-, l-alpha tocopherol is added, and as such a control extract is provided.
The concentrated liquid tobacco extracts with and without added d-, l-alpha tocopherol mixture are vigorously mixed or homogenized and allowed to set at room temperature conditions for five days.

On to `Cc1c(C)c2c(c(C)c1O)CCC(C)(CCCC(C)CCCC(C)CCCC(C)C)O2` (stereo not drawn) [d-, l-alpha tocopherol], for which the “bacteria activity in the extract” value in data set [1] is given as “significantly reduce”. Also, the “condition of aqueous tobacco extract containing the additive on storage” value in data set [2] (approximately 4% d-, l-alpha tocopherol on dried solids, five days, control began to ferment within two days) is recorded as “remained unchanged”. In data set [2] (emulsified in test extract, five day test period), the “separation of the additive in the tobacco extract” value is “no separation”.
